The source of these data is the NIST ThermoML archive (doi:10.1016/j.fluid.2006.02.001).

Numbers after ± are expanded uncertainties.

The conditions of data set [1]: visual observation.
Data set [2] in a line: Molar enthalpy of transition or fusion. To be noted: Crystal; DSC.
The nature of data set [3]: Solid-liquid equilibrium temperature. To be noted: Crystal, Closed cell.

On to `CCCCCCCCCCCCCCCCCCCCO` [1-eicosanol], for which, in data set [1] (Crystal 1), the Normal melting temperature was 64.52 ± 0.5 °C.
On to `CCCCCCCCCCCCCCCCO` [1-hexadecanol], for which, in data set [1] (Crystal 1), the Normal melting temperature was found to be 49.1 ± 0.5 °C.
For the compound `CCCCCCCCCCCCCCCCCCO` [1-octadecanol], the Normal melting temperature in data set [1] (Crystal 1) came to 57.00 ± 0.5 °C.
On to `CCC(=O)C(C)=O` [2,3-pentanedione], for which the “Molar enthalpy of transition or fusion” value in data set [2] came to 1.87 ± 0.055 kcal/mol. Further, the Solid-liquid equilibrium temperature in data set [3] (697870 kPa) stood at 293.15 ± 2.6 K; in data set [3] (807350 kPa), 303.15 ± 2.6 K; in data set [3] (947230 kPa) it was 313.15 ± 2.5 K; in data set [3] (1117520 kPa), 323.15 ± 2.5 K; in data set [3] (1318200 kPa) it was 333.15 ± 2.5 K; in data set [3] (1549280 kPa) it was 343.15 ± 2.8 K. For the same compound, the Normal melting temperature in data set [1] (Crystal 1) is -52.00 ± 0.5 °C.
With `C1CCCCC1` [cyclohexane], the Solid-liquid equilibrium temperature in data set [3] (23390 kPa) turned out to be 293.15 ± 0.52 K; in data set [3] (45610 kPa) it was 303.15 ± 0.89 K; in data set [3] (67600 kPa) it was 313.15 ± 1.3 K; in data set [3] (89340 kPa) it was 323.15 ± 1.7 K; in data set [3] (110840 kPa), 333.15 ± 2.1 K; in data set [3] (132100 kPa) it was 343.15 ± 2.5 K. Further, in data set [1] (Crystal), the Normal melting temperature is 7.0 ± 0.25 °C.
As for `CCCCCCCCCCCCCCCCCCCC` [eicosane], the Normal melting temperature in data set [1] (Crystal) was 36.36 ± 0.25 °C.
As to `CCCCCCCCCCCCCCCC` [hexadecane], in data set [1] (Crystal), the Normal melting temperature is 18.30 ± 0.25 °C.
For the compound `CCCCCCCCCCCCC` [tridecane], the Solid-liquid equilibrium temperature was determined as 293.15 ± 0.9 K in data set [3] (132350 kPa); 303.15 ± 1.2 K in data set [3] (196230 kPa); 313.15 ± 1.6 K in data set [3] (264630 kPa); 323.15 ± 1.9 K in data set [3] (337550 kPa); 333.15 ± 2.1 K in data set [3] (415000 kPa); 343.15 ± 2.5 K in data set [3] (496960 kPa). For the same compound, the Normal melting temperature in data set [1] (Crystal) is -4.14 ± 0.35 °C.
